Results on two molecules are retold here after ChEMBL document CHEMBL1154254, “Antiproliferative triterpenoid saponins of Dodonaea viscosa from the Madagascar dry forest” (J Nat Prod, 2009).

Assay type in all cases: functional, cell-based
For test [1], the system named is A2780. Description: Antiproliferative activity against human A2780 cells after 2 days by alamar blue assay. The settings on record: A2780, 48 h.
The subject of test [2] is HCC 2998. As to the kind of experiment: Antiproliferative activity against human HCC2998 cells.
The test system of test [3] is DU-145. Description: Antiproliferative activity against human DU145 cells.
The test system of test [4] is BT-549. Description: Antiproliferative activity against human BT549 cells.
The subject of test [5] is NCI-H460. Description: Antiproliferative activity against human NCI-H460 cells.

For orientation: IC50 means the concentration that inhibits the measured activity by half.

Consider `C/C=C(/C)C(=O)O[C@H]1[C@H](OC(=O)/C(C)=C\C)[C@]2(CO)[C@H](O)[C@H](O)[C@]3(C)C(=CC[C@@H]4[C@@]5(C)CC[C@H](O[C@@H]6O[C@H](C(=O)O)[C@@H](O)[C@H](O[C@@H]7O[C@@H](CO)[C@H](O)[C@H]7O)[C@H]6O[C@@H]6O[C@H](CO)[C@@H](O)[C@H](O)[C@H]6O)C(C)(C)[C@@H]5CC[C@]43C)[C@@H]2CC1(C)C` [DODONAEASIDE A], for which the IC50 in test [1] was 0.79 µM; in test [2], more than 5 µM; in test [3] it was more than 5 µM; in test [4], more than 5 µM; in test [5], more than 5 µM.
`C/C=C(/C)C(=O)O[C@H]1[C@H](OC(=O)[C@]2(C)O[C@@H]2C)C(C)(C)C[C@H]2C3=CC[C@@H]4[C@@]5(C)CC[C@H](O[C@@H]6O[C@H](C(=O)O)[C@@H](O)[C@H](O[C@@H]7O[C@@H](CO)[C@H](O)[C@H]7O)[C@H]6O[C@@H]6O[C@H](CO)[C@@H](O)[C@H](O)[C@H]6O)C(C)(C)[C@@H]5CC[C@@]4(C)[C@]3(C)C[C@@H](O)[C@]21CO` [DODONAEASIDE B] registered an IC50 in test [1] of 0.7 µM.
